Patent US8568973B2, “Cell-signaling assays” (Molecular Devices, LLC, priority 1999, dated 2013)
“Also recorded” adds a separate entry of the source.

Test system: T47D cells
Experiment: Whole-cell cAMP luminescence polarization assay of modulators (FIG. 13)
Type: cell-based
Description: • (a) Preparation of 1:75 cAMP antibody working stock. Dilute the 300× cAMP antibody stock 1:75 in cAMP assay buffer (0.05 M HEPES, pH 7.5, 150 mM NaCl, 0.1% bovine gamma globulin) (e.g., by adding 14 μL of the 300× cAMP antibody stock to 1036 μL of cAMP assay buffer). 10 μL of this working stock solution will be added to the assay plate, as indicated in the plate layout in FIG. 9. • (b) Preparation of cAMP tracer working stock. Dilute the 500× cAMP tracer stock 1:125 in cAMP assay buffer (e.g., by adding 10 μL of the 500× cAMP tracer stock to 1240 μL of cAMP assay buffer). 10 μL of this working stock solution will be added to the assay plate, as indicated in the plate layout in FIG. 9. • (c) Preparation of cAMP calibration curve. Dilute the cAMP calibrator 1:25 in cAMP assay buffer (e.g., by adding 10 μL cAMP calibrator to 240 μL cAMP assay buffer) to give 10 μM cAMP calibrator or 400 pmol in final assay. Prepare seven 1:3 serial dilutions to give 3.33, 1.11, 0.37, 0.12, 0.041, 0.014, and 0.005 μM cAMP (133 to 0.125 pmol in final assay). • (d) Preparation of samples. […] A plastic plate cover may be used to prevent possible evaporation, but care should be taken with plastic plate sealers, which may introduce undesirable background fluorescence. • (e) Read plate using a light detection device capable of generating and detecting polarized light. […]

SMILES | effect on isoproterenol-stimulated cAMP production (cultured T47D cells, endogenous beta receptors, antagonist added to isoproterenol stimulation) | cAMP production (cAMP levels) (cultured adherent T47D cells, whole cell preparation, forskolin protocol 20 μM final, 15 minutes at 37° C.)
CC(C)NCC(O)COc1cccc2ccccc12 (centres unmarked) [propranolol] | reversed; also recorded: inhibited | –
CC(C)NCC(O)c1ccc(O)c(O)c1 (centres unmarked) [isoproterenol] | – | stimulates cAMP production; also recorded: stimulated
